In ChEMBL document CHEMBL1148587, “Imidazo[1,2-a]pyrimidines as functionally selective and orally bioavailable GABA(A)alpha2/alpha3 binding site agonists for the treatment of anxiety disorders” (J Med Chem, 2006):
pKi: −log10 of the molar value. The source made the active and inactive calls. The rule behind the calls is not given here.

Columns and labels:
[1] = target: T1, GABA-A receptor; alpha-1/beta-3/gamma-2 (Homo sapiens, UniProt P14867+P18507+P28472); assay: Displacement of [3H]-Ro15-1788 from human recombinant GABAA alpha1 in combination with beta-3-gamma-2 expressed in L(tk-) cells; assay type: cell-based
T1 sequence (P14867 whole entry): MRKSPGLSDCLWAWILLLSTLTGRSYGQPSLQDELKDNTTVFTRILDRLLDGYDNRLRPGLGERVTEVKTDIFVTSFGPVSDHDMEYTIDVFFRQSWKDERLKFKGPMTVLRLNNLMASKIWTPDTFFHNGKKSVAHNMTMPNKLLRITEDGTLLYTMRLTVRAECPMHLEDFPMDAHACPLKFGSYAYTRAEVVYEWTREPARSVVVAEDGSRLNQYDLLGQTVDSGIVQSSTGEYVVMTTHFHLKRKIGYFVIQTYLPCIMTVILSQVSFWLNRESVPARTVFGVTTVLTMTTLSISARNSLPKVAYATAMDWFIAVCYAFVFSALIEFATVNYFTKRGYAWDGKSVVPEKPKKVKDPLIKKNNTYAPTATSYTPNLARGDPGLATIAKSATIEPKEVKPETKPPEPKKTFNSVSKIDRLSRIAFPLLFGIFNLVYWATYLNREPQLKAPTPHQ
T1 sequence (P18507 whole entry): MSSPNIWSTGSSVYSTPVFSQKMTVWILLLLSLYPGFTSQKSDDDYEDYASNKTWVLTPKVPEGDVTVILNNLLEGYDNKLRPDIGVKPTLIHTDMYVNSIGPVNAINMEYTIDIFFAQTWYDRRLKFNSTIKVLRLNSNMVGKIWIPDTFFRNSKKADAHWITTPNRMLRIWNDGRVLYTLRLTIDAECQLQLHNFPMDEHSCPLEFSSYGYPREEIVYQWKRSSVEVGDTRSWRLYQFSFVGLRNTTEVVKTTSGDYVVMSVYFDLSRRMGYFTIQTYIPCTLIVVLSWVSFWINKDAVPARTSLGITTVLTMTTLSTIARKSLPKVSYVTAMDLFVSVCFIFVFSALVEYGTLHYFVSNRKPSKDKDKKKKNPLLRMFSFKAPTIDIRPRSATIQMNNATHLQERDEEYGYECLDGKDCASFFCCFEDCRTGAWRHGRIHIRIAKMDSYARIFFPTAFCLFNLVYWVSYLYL
T1 sequence (P28472 whole entry): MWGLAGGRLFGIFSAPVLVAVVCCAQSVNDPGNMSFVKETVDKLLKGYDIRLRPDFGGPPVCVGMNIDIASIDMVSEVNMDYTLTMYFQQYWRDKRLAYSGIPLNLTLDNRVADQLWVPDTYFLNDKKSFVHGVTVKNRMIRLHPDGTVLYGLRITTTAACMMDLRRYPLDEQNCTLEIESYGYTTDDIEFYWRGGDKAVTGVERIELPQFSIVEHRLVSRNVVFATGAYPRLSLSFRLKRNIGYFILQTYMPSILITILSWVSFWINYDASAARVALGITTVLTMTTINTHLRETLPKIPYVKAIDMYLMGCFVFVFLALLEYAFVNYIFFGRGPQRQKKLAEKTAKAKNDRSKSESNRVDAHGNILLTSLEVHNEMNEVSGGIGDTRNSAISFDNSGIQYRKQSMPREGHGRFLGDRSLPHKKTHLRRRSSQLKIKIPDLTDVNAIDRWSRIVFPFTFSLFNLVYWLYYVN

[2] = Plasma clearance in rat; assay type: ADME, organism-based
Squirrel monkey = assay: Anxiolytic activity in squirrel monkey conditioned emotional response test at 0.3 mg/kg, po; assay type: functional, organism-based; parameters: dose 0.3 mg/kg; details: Saimiri sciureus
[3] = target: T2, GABA-A receptor; alpha-3/beta-3/gamma-2 (Homo sapiens, UniProt P18507+P28472+P34903); assay: Displacement of [3H]Ro-151788 from human recombinant GABAA alpha3 in combination with beta3gamma2 expressed in L(tk-) cells; assay type: cell-based
T2 sequence (P18507 whole entry): T1 sequence (P18507 whole entry)
T2 sequence (P28472 whole entry): T1 sequence (P28472 whole entry)
T2 sequence (P34903 whole entry): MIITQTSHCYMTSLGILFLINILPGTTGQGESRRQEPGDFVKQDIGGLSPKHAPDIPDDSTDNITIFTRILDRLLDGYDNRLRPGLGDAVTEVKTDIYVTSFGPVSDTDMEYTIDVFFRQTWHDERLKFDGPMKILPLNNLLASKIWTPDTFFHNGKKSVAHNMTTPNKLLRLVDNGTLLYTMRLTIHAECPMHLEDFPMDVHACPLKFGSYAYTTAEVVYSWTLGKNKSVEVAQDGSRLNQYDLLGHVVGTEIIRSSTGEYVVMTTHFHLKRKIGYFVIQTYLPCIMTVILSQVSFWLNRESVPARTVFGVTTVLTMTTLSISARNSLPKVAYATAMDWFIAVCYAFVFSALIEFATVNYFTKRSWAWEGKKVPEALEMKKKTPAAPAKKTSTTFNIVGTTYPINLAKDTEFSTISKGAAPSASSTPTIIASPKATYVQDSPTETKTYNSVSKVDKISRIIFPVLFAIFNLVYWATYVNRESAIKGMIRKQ

[4] = Plasma clearance in dog; assay type: ADME, organism-based, Canis lupus familiaris
Rattus norvegicus = assay: Effect on activity impairment in rat chain pulling assay at 30 mg/kg, po; assay type: functional, organism-based; parameters: dose 30 mg/kg
[5] = target: GABA-A receptor; alpha-5/beta-3/gamma-2 (Homo sapiens) (UniProt P18507+P28472+P31644); assay: Efficacy against human recombinant GABAA alpha5 in combination with beta3gamma2 expressed in L(tk-) cells by whole cell patch clamp method; assay type: functional, cell-based
[6] = target: T3, GABA-A receptor; alpha-5/beta-3/gamma-2 (Homo sapiens, UniProt P18507+P28472+P31644); assay: Displacement of [3H]Ro-151788 from human recombinant GABAA alpha5 in combination with beta3gamma2 expressed in L(tk-) cells; assay type: cell-based
T3 sequence (P18507 whole entry): T1 sequence (P18507 whole entry)
T3 sequence (P28472 whole entry): T1 sequence (P28472 whole entry)
T3 sequence (P31644 whole entry): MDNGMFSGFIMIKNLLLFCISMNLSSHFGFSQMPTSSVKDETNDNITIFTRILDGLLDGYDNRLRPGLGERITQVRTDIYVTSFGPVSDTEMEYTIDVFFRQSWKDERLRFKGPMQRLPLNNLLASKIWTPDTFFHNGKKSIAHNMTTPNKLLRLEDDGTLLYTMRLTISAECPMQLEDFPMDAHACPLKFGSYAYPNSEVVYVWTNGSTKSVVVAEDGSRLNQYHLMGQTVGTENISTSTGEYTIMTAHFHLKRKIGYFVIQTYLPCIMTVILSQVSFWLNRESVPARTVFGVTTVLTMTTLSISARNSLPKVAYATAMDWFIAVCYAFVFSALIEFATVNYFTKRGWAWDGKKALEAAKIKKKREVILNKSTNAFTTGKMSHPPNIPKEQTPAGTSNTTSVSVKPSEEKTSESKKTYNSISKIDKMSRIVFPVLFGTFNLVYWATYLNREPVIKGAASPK

[7] = target: GABA-A receptor; alpha-1/beta-3/gamma-2 (Homo sapiens) (UniProt P14867+P18507+P28472); assay: Efficacy against human recombinant GABAA alpha-1 in combination with beta3gamma2 expressed in L(tk-) cells by whole cell patch clamp method; assay type: functional, cell-based
[8] = Half life in rat; assay type: ADME, organism-based; details: in vivo
[9] = Oral bioavailability in dog; assay type: ADME, organism-based, Canis lupus familiaris; details: in vivo

| SMILES | pKi [1] | clearance [2] | Activity (Squirrel monkey) | pKi [3] | clearance [4] | Activity (Rattus norvegicus) | Efficacy [5] | pKi [6] | Efficacy [7] | half-life [8] | bioavailability [9] |
| --- | --- | --- | --- | --- | --- | --- | --- | --- | --- | --- | --- |
| CC(C)(O)c1ccn2c(-c3ccc(F)c(-c4cccnc4)c3)cnc2n1 | 9.07 | 9.1 mL/min/kg | Active | 8.40 | 8.2 mL/min/kg | inactive | 20% | 9.28 | 6.2% | 1.7 h | 48% |
| N#Cc1cc(F)ccc1-c1cc(-c2cnc3nc(C(F)(F)F)ccn23)ccc1F | 8.92 | 10.3 mL/min/kg | Active | 9.14 | 2.9 mL/min/kg | inactive | 2% | 9.30 | -2% | 7.3 h | 29% |
